In general, IC50 refers to the point on the concentration scale where inhibition reaches its midpoint. As usually defined, the half-life is the time needed for the level to fall by half in the phase considered. Broadly, the Cmax is the maximum level reached in the sampled fluid or tissue. By AUC(0-t) is commonly meant the area under the concentration-time curve up to a stated or last time point. Low values mean less exposure, high ones more exposure. By clearance is commonly meant the rate of elimination divided by the concentration. A low value points to a low capacity for elimination. For orientation: bioavailability means dose-corrected exposure relative to a reference, in per cent.

This is an account of results in ChEMBL document CHEMBL4840307, “Synthesis and biological evaluation of 1-(4-(piperazin-1-yl)phenyl)pyridin-2(1H)-one derivatives as potential SSRIs” (Eur J Med Chem, 2021).

Data set [1] has as its target Sodium-dependent serotonin transporter (Rattus norvegicus, UniProt P31652). The data set is described as follows: Inhibition of serotonin transporter expressed in rat brain tissue assessed as inhibition of [3H]-5-hydroxytryptamine reuptake measured after 15 mins by scintillation counting analysis. Format: tissue-based.
Data set [2] in a line: Metabolic stability in rat liver microsomes assessed as half life incubated for 60 mins by LC-MS/MS analysis. It counts as ADME, Microsome. (In general: Liver microsomes are vesicles of endoplasmic reticulum, rich in cytochrome P450 enzymes.)
Data set [3] in a line: Metabolic stability in rat liver microsomes assessed as clearance incubated for 60 mins by LC-MS/MS analysis. As to conditions: read-out: CLH. It counts as ADME, Microsome.
Data set [4] is described as follows: Cmax in Sprague-Dawley rat at 2 mg/kg, iv measured by LC-MS/MS analysis. Format: ADME, organism-based. On the set-up: route intravenous, dose 2 mg/kg. As to conditions: in vivo.
The nature of data set [5]: Cmax in Sprague-Dawley rat at 5 mg/kg, po measured by LC-MS/MS analysis. It counts as ADME, organism-based. Details: route oral, dose 5 mg/kg. The settings on record: in vivo.
Data set [6] in a line: AUC (0 to t) in Sprague-Dawley rat at 2 mg/kg, iv measured by LC-MS/MS analysis. As to conditions: in vivo. Format: ADME, organism-based. On the set-up: dose 2 mg/kg.
Data set [7] in a line: AUC (0 to t) in Sprague-Dawley rat at 5 mg/kg, po measured by LC-MS/MS analysis. The settings on record: in vivo. Format: ADME, organism-based. Details: dose 5 mg/kg.
The nature of data set [8]: Half life in Sprague-Dawley rat at 2 mg/kg, iv measured by LC-MS/MS analysis. As to conditions: in vivo. Format: ADME, organism-based.
Data set [9] in a line: Half life in Sprague-Dawley rat at 5 mg/kg, po measured by LC-MS/MS analysis. It counts as ADME, organism-based. The settings on record: in vivo.
A short description of data set [10]: Volume of distribution in steady state in Sprague-Dawley rat at 2 mg/kg, iv measured by LC-MS/MS analysis. It counts as ADME, organism-based. The settings on record: in vivo, read-out: Vdss.
A short description of data set [11]: Clearance in Sprague-Dawley rat at 2 mg/kg, iv measured by LC-MS/MS analysis. It counts as ADME, organism-based. As to conditions: in vivo.
Data set [12] is described as follows: Oral bioavailability in Sprague-Dawley rat at 5 mg/kg measured by LC-MS/MS analysis. It counts as ADME, organism-based. The settings on record: in vivo.
The target of data set [13] is Sodium-dependent serotonin transporter (Rattus norvegicus) (UniProt P31652). As to the kind of experiment: Antagonist activity at SERT in Sprague-Dawley rat hypothalamus assessed as PCA induced serotonin depletion at 10 mg/kg, iv measured after 30 mins by LC-MS/MS analysis. It counts as organism-based. The settings on record: filed as antagonist.
Sodium-dependent serotonin transporter (Rattus norvegicus), sequence (P31652 whole entry): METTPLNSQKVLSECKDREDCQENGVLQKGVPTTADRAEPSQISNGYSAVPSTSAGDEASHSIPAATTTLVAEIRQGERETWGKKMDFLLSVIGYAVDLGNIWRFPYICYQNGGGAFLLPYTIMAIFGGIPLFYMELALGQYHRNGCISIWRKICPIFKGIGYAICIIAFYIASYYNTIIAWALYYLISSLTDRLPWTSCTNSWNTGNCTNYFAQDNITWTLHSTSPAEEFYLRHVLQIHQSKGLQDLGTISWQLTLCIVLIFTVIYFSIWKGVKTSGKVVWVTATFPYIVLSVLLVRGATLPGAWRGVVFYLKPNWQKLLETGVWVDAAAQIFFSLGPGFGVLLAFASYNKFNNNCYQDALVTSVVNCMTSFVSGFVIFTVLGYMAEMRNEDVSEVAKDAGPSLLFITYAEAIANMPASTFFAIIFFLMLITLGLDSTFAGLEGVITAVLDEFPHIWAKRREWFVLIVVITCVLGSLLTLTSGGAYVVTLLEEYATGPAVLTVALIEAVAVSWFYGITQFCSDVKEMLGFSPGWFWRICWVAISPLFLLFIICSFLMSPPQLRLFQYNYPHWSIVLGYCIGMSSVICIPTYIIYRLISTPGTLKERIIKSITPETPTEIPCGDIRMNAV
Data set [14] relates to Rattus norvegicus. The data set is described as follows: Antidepressant-like activity in rat assessed as reduction in immobility time at 3 ml/kg, sc measured after 60 mins by Forced swimming test. Format: functional, organism-based.
Data set [15] relates to Rattus norvegicus. As to the kind of experiment: Antidepressant-like activity in rat assessed as reduction in immobility time at 10 ml/kg, sc measured after 60 mins by Forced swimming test. Format: functional, organism-based.
Data set [16] deals with T1, 5-hydroxytryptamine receptor 1A (Homo sapiens, UniProt P08908).
T1 sequence (P08908 whole entry): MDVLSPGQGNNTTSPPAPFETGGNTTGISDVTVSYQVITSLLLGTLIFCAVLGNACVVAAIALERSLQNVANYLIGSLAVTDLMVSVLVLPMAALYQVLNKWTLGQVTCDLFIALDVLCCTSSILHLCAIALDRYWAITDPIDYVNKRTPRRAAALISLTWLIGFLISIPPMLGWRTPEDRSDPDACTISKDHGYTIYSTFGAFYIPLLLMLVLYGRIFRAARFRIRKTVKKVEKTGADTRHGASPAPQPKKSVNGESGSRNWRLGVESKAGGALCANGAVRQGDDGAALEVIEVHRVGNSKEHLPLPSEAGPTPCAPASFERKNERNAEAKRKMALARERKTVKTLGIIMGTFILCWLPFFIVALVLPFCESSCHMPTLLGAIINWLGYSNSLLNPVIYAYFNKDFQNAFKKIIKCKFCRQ
The data set is described as follows: Inhibition of 5-HT1a (unknown origin).

Data set [17] deals with 5-hydroxytryptamine receptor 2A (Homo sapiens, UniProt P28223). As to the kind of experiment: Inhibition of 5-HT2a (unknown origin).
5-hydroxytryptamine receptor 2A, sequence (P28223 whole entry): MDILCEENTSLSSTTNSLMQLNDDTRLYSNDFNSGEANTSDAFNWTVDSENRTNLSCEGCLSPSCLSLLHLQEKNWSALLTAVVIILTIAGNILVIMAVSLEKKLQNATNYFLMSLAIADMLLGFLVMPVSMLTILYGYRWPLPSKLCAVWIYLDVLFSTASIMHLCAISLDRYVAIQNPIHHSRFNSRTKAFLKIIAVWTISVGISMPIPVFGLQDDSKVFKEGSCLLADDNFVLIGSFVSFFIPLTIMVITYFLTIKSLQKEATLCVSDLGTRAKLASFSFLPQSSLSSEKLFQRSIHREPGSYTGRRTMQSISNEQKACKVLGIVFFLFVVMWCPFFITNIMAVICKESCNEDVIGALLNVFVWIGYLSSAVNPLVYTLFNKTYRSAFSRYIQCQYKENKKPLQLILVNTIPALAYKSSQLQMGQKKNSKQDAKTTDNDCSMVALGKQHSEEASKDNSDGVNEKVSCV
The target in data set [18] is T2, 5-hydroxytryptamine receptor 2C (Homo sapiens, UniProt P28335).
T2 sequence (P28335 whole entry): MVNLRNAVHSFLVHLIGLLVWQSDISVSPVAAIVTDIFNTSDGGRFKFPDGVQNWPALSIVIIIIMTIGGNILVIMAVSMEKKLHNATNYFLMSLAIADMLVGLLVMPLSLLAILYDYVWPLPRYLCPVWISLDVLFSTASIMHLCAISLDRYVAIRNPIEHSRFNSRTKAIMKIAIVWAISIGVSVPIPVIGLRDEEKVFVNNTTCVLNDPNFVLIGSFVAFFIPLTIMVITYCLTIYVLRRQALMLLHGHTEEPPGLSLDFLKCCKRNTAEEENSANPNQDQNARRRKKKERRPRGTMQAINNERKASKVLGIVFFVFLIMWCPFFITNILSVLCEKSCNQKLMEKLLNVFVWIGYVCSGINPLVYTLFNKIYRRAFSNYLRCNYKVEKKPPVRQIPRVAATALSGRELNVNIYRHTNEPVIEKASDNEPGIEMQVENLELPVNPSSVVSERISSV
The data set is described as follows: Inhibition of 5-HT2c (unknown origin).

Data set [19] has as its target T3, 5-hydroxytryptamine receptor 3A (Homo sapiens, UniProt P46098).
T3 sequence (P46098 whole entry): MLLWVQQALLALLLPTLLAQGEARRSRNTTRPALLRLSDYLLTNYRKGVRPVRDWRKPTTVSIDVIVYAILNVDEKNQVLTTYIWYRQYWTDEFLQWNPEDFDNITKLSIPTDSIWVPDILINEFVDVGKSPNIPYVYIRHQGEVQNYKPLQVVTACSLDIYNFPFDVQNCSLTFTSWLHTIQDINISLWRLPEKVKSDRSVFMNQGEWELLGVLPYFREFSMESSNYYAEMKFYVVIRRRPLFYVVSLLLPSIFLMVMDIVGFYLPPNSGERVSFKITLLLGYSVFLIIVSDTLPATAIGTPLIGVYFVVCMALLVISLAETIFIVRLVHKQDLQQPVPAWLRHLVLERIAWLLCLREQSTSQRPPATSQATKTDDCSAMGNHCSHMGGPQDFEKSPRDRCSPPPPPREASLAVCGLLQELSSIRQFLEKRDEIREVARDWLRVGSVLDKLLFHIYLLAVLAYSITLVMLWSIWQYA
As to the kind of experiment: Inhibition of 5-HT3 (unknown origin).

Active and inactive are the calls of the source.

Sodium-dependent serotonin transporter, sequence (P31652 whole entry): as the sequence (P31652 whole entry) above

Regarding `Cc1ccn(-c2ccc(N3CCN(CCc4c[nH]c5ccc(C#N)cc45)CC3)cc2)c(=O)c1`, in [1], the IC50 was 7.57 nM.
The same measure, in the same setting: as for `N#Cc1ccc2[nH]cc(CCCN3CCN(c4ccc(-n5cc(F)ccc5=O)cc4)CC3)c2c1`, the figure is 2.22 nM; as for `N#Cc1ccc2[nH]cc(CCCCN3CCN(c4ccc(-n5ccccc5=O)cc4)CC3)c2c1`, 1.6 nM.
For the molecule `N#Cc1ccc2[nH]cc(CCCCN3CCN(c4ccc(-n5ccc6ncccc6c5=O)cc4)CC3)c2c1`, the half-life in data set [2] was 1.89 h; in data set [8], 1.01 h; in [9] it was 0.82 h. In addition, the CLint scaled in data set [3] is 12.2 mL/min/kg. Moreover, the highest concentration (Cmax) in data set [4] amounted to 831 ng/mL; in [5], 70.5 ng/mL. Further, the AUC(0-t) in [6] was found to be 823 ng·h/mL; in [7] it was 189 ng·h/mL. Moreover, the Vd in data set [10] amounted to 2.47 L/kg. This molecule also showed a clearance in data set [11] of 40.8 mL/min/kg. The bioavailability in data set [12] stood at 9.19%. The outcome (in data set [13]; with Rattus norvegicus [14]; in the data set with Rattus norvegicus [15]) was Active. For the same molecule, the IC50 is 0.5 nM in data set [16], > 10000 nM in data set [17], > 10000 nM in data set [18] and > 10000 nM in data set [19].
For the molecule `Cc1ccn(-c2ccc(N3CCN(CCCc4c[nH]c5ccc(C#N)cc45)CC3)cc2)c(=O)c1`, the half-inhibitory concentration (IC50) in data set [1] worked out at 2.02 nM.
For the molecule `N#Cc1ccc2[nH]cc(CCCCCN3CCN(c4ccc(-n5cc(F)ccc5=O)cc4)CC3)c2c1`, the IC50 in [1] was 6 nM.
Still for that read-out and setting: as for `N#Cc1ccc2[nH]cc(CCN3CCN(c4ccc(-n5cc(F)ccc5=O)cc4)CC3)c2c1`, the figure is 5.51 nM.
As to `N#Cc1ccc2[nH]cc(CCCCN3CCN(c4ccc(-n5ccc6occc6c5=O)cc4)CC3)c2c1`, the figures for the half-life in data set [2], in data set [8] and in data set [9] were 5.2 h, 1.26 h and 2.26 h, respectively. Also, the CLint scaled in data set [3] was 4.4 mL/min/kg. Also, the values for the highest concentration (Cmax) in data set [4] and in data set [5] were 694 ng/mL and 33.6 ng/mL, respectively. The AUC(0-t) in data set [6] worked out at 559 ng·h/mL; in data set [7], 77 ng·h/mL. Moreover, the Vd in data set [10] came to 3.21 L/kg. This molecule also showed a clearance in [11] of 59.3 mL/min/kg. The bioavailability in data set [12] came out at 5.8%. The IC50 is 0.14 nM in [16], > 10000 nM in [17], > 10000 nM in data set [18] and > 10000 nM in [19].
With `N#Cc1ccc2[nH]cc(CCCN3CCN(c4ccc(-n5ccc6ncccc6c5=O)cc4)CC3)c2c1`, the half-life in data set [2] was 0.0735 h. Moreover, the CLint scaled in data set [3] came out at 315 mL/min/kg. Besides, the concentration for half-maximal inhibition (IC50) in [16] was 1.7 nM; in data set [17] it was > 10000 nM; in data set [18], > 10000 nM; in [19] it was > 10000 nM.
As for `Cc1ccn(-c2ccc(N3CCN(CCCCc4c[nH]c5ccc(C#N)cc45)CC3)cc2)c(=O)c1`, the IC50 in [1] was determined as 2.03 nM.
Still for that read-out and setting: as for `COc1ccn(-c2ccc(N3CCN(CCCc4c[nH]c5ccc(C#N)cc45)CC3)cc2)c(=O)c1`, the figure is 4.58 nM; as for `N#Cc1ccc2[nH]cc(CCCCN3CCN(c4ccc(-n5ccc6ccccc6c5=O)cc4)CC3)c2c1`, 4.31 nM.
The same measure, in the same setting: as for `N#Cc1ccc2[nH]cc(CCCN3CCN(c4ccc(-n5ccc6ccccc6c5=O)cc4)CC3)c2c1`, the figure is 10.2 nM; as for `N#Cc1ccc2[nH]cc(CCCCCN3CCN(c4ccc(-n5ccccc5=O)cc4)CC3)c2c1`, 1.35 nM.
In the case of `N#Cc1ccc2[nH]cc(CCCCN3CCN(c4ccc5oc(C(N)=O)cc5c4)CC3)c2c1` [VILAZODONE], the half-life in data set [2] is 0.298 h. For the same molecule, the CLint scaled in [3] worked out at 77.3 mL/min/kg.
Consider `N#Cc1ccc2[nH]cc(CCCCN3CCN(c4ccc(-n5cc(F)ccc5=O)cc4)CC3)c2c1`, for which, in data set [1], the 50% inhibitory concentration (IC50) turned out to be 3.75 nM.
